Here are results for eleven compounds from patent US10508104B2, “6-hydroxy-5-(phenyl/heteroarylsulfonyl)pyrimidin-4(1H)-one as APJ agonists” (Bristol-Myers Squibb Company, priority 2016, dated 2019).

human APJ receptor, sequence (P35414 whole entry): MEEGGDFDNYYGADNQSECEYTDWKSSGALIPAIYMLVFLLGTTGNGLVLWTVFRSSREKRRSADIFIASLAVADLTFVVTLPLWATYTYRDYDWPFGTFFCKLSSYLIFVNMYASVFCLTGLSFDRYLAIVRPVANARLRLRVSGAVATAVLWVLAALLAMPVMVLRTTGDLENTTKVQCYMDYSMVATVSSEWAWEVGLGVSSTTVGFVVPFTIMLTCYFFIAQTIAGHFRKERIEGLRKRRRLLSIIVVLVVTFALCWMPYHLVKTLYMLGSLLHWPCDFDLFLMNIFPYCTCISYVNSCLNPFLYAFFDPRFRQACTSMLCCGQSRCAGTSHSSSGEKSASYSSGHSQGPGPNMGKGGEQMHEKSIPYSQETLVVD

One assay concerns the target human APJ receptor (Homo sapiens (Human), UniProt P35414). Put plainly: Intracellular cAMP accumulation assay (APJ hcAMP, HTRF). In kind it is cell-based. To be noted: HEK293 cells stably expressing human APJ receptor; inhibition of forskolin-mediated cAMP production; read-out: Human APJ cAMP EC50 Potency range. In short, it runs like this: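 HEK293 cells stably expressing human APJ, 5,000 per well, incubated 30 min at rt with compound, […] and 2 μM forskolin. cAMP measured by HTRF against a cAMP standard curve as inhibition of forskolin-driven production. EC50 from variable-slope sigmoidal fit.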
(In general: cAMP levels reflect the balance of adenylyl cyclase and phosphodiesterase activity.)
In the case of `CCCCc1nc(=O)c(S(=O)(=O)c2ccc(-c3ccc(C(C)(C)O)cc3)cc2)c(O)n1[C@@H](CC)c1cccc(C#N)c1` [Example 532, 3-[(1S)-1-(2-butyl-6-hydroxy-5-{[4′-(2-hydroxypropan-2-yl)-[1,1′-biphenyl]-4-yl]sulfonyl}-4-oxo-1,4-dihydropyrimidin-1-yl)propyl]benzonitrile], the EC50 was 10 to 100 nM. As for `CC[C@@H](c1cccc(C#N)c1)n1c(COC(C)C)nc(=O)c(S(=O)(=O)c2ccc(-c3ccc(F)nc3C)cc2)c1O` [Example 382, 3-[(1S)-1-{5-[4-(6-fluoro-2-methylpyridin-3-yl)benzenesulfonyl]-6-hydroxy-4-oxo-2-[(propan-2-yloxy)methyl]-1,4-dihydropyrimidin-1-yl}propyl]benzonitrile], the EC50 lay in the range of 0.01 to 10 nM. Same read-out and setting: as for `CC(C)OCc1nc(=O)c(S(=O)(=O)c2ccc(Br)cc2)c(O)n1[C@H](c1cccc(C#N)c1)C1CC1` [Example 372, 3-[(S)-[5-(4-bromobenzenesulfonyl)-6-hydroxy-4-oxo-2-[(propan-2-yloxy)methyl]-1,4-dihydropyrimidin-1-yl](cyclopropyl)methyl] benzonitrile], the figure is 0.01 to 10 nM.

The same assay, now with this note: human APJ, cAMP accumulation; read-out: Human APJ cAMP EC50 Potency range.
Consider `CCCCc1nc(=O)c(S(=O)(=O)c2ccc(-c3cccnc3C)cc2)c(O)n1[C@@H](CC)c1ccc2c(c1)OCO2` [Example 215, 1-[(1S)-1-(2H-1,3-benzodioxol-5-yl)propyl]-2-butyl-6-hydroxy-5-[4-(2-methylpyridin-3-yl)benzenesulfonyl]-1,4-dihydropyrimidin-4-one], for which the EC50 fell in the range of 0.01 to 10 nM.

Still in this assay, the particulars now being: human APJ, intracellular cAMP accumulation; read-out: Human APJ cAMP EC50 Potency range.
For the compound `CCCCc1nc(=O)c(S(=O)(=O)c2ccc(-c3ccc(F)cc3)cn2)c(O)n1-c1c(OC)cccc1OC` [Example 103, 2-butyl-1-(2,6-dimethoxyphenyl)-5-{[5-(4-fluorophenyl)pyridin-2-yl]sulfonyl}-6-hydroxy-1,4-dihydropyrimidin-4-one], the EC50 lay in the range of 0.01 to 10 nM. Regarding `COc1cccc(OC)c1-n1c(CCC(C)C)nc(=O)c(S(=O)(=O)c2ccccc2-c2cn(C)nc2C(F)(F)F)c1O` [Example 25, 1-(2,6-dimethoxyphenyl)-6-hydroxy-5-{2-[1-methyl-3-(trifluoromethyl)-1H-pyrazol-4-yl]benzenesulfonyl}-2-(3-methylbutyl)-1,4-dihydropyrimidin-4-one], the EC50 was in the range of 100 to 300 nM. For the compound `CCCCc1nc(=O)c(S(=O)(=O)c2ccc(-c3ccc(OC)nc3C)cc2)c(O)n1[C@H]1CCc2ccccc21` [Example 167, 2-butyl-1-[(1S)-2,3-dihydro-1H-inden-1-yl]-6-hydroxy-5-[4-(6-methoxy-2-methylpyridin-3-yl)benzenesulfonyl]-1,4-dihydropyrimidin-4-one], the EC50 was in the range of 0.01 to 10 nM. On to `CCCCc1nc(=O)c(S(=O)(=O)c2ccc(-c3ccnc(F)c3C)cc2)c(O)n1[C@H](C)c1cccc(C#N)c1` [Example 159, 3-[(1R)-1-{2-butyl-5-[4-(2-fluoro-3-methylpyridin-4-yl)benzenesulfonyl]-6-hydroxy-4-oxo-1,4-dihydropyrimidin-1-yl}ethyl]benzonitrile], for which the EC50 lay within 0.01 to 10 nM. On the same count and under the same terms, as for `COC[C@@H](c1ccccc1)n1c(CC2CC2)nc(=O)c(S(=O)(=O)c2ccc(-c3cncc(F)c3)cc2)c1O` [Example 181, 2-(cyclopropylmethyl)-5-[4-(5-fluoropyridin-3-yl)benzenesulfonyl]-6-hydroxy-1-[(1R)-2-methoxy-1-phenylethyl]-1,4-dihydropyrimidin-4-one], the figure is 0.01 to 10 nM; as for `CCCCc1nc(=O)c(S(=O)(=O)c2ccc(C3CC3)cn2)c(O)n1-c1c(OC)cccc1OC` [Example 101, 2-butyl-5-[(5-cyclopropylpyridin-2-yl)sulfonyl]-1-(2,6-dimethoxyphenyl)-6-hydroxy-1,4-dihydropyrimidin-4-one], 0.01 to 10 nM; as for `COC[C@@H](c1ccccc1)n1c(CCC(C)C)nc(=O)c(S(=O)(=O)c2ccc(-c3ccc(F)nc3C)cc2)c1O` [Example 196, 5-[4-(6-fluoro-2-methylpyridin-3-yl)benzenesulfonyl]-6-hydroxy-1-[(1R)-2-methoxy-1-phenylethyl]-2-(3-methylbutyl)-1,4-dihydropyrimidin-4-one], 0.01 to 10 nM.

As usually defined, the EC50 is the concentration that produces a half-maximal response.
